Measured values taken from patent publication US8829007B2 (priority 2009, dated 2014).

These compounds were tested on influenza A virus (A/PR/8/34) (assay: microbe, parasite or virus in culture). Settings: Influenza A virus, PR/8, MDCK, MDCK cells infected with A/PR/8/34, cell protection (CPE); read-out: IC50 (mean all).
Assay type: cell-based
O=C(CC1CCCCC1)N1CCCC[C@@H]1CNc1nc(-c2c[nH]c3ncc(Cl)cc23)ncc1F [Compound 294, (R)-1-(2-((2-(5-chloro-1H-pyrrolo[2,3-b]pyridin-3-yl)-5-fluoropyrimidin-4-ylamino)methyl)piperidin-1-yl)-2-cyclohexylethanone] was tested, and the IC50 was > 20 µM.

Same assay, conditions: Influenza A virus, PR/8, MDCK, mean all; A/PR/8/34 infected MDCK cells, CPE assay; read-out: IC50
With CCCS(=O)(=O)N1CCCC[C@@H]1CNc1nc(-c2c[nH]c3ncc(Cl)cc23)ncc1F [Compound 328, (R)-2-(5-chloro-1H-pyrrolo[2,3-b]pyridin-3-yl)-5-fluoro-N-((1-(propylsulfonyl)piperidin-2-yl)methyl)pyrimidin-4-amine] the IC50 was > 20 µM. In the case of CCCCS(=O)(=O)N1CCCC[C@@H]1CNc1nc(-c2c[nH]c3ncc(Cl)cc23)ncc1F [Compound 329, (R)—N-((1-(butylsulfonyl)piperidin-2-yl)methyl)-2-(5-chloro-1H-pyrrolo[2,3-b]pyridin-3-yl)-5-fluoropyrimidin-4-amine], the IC50 is reported as > 20 µM. With CC(=O)N[C@@H]1CCCC[C@H]1Nc1nc(-c2c[nH]c3ncccc23)ncc1F [Compound 348, N-[(1R,2R)-2-[[5-fluoro-2-(1H-pyrrolo[2,3-b]pyridin-3-yl)pyrimidin-4-yl]amino]cyclohexyl]acetamide] the IC50 was > 20 µM. O=C(N[C@@H]1CCCC[C@H]1Nc1nc(-c2c[nH]c3ncc(Cl)cc23)ncc1F)C1CCCC1 [Compound 351, N-[(1R,2R)-2-[[2-(5-chloro-1H-pyrrolo[2,3-b]pyridin-3-yl)-5-fluoro-pyrimidin-4-yl]amino]cyclohexyl]cyclopentanecarboxamide] was tested, and the IC50 was > 20 µM. O=C(N[C@@H]1CCCC[C@H]1Nc1nc(-c2c[nH]c3ncc(Cl)cc23)ncc1F)c1ccccc1 [Compound 352, N-[(1R,2R)-2-[[2-(5-chloro-1H-pyrrolo[2,3-b]pyridin-3-yl)-5-fluoro-pyrimidin-4-yl]amino]cyclohexyl]benzamide] was tested, and the IC50 was > 20 µM. CS(=O)(=O)N[C@@H]1CCCC[C@H]1Nc1nc(-c2c[nH]c3ncc(Cl)cc23)ncc1F [Compound 353, N-[(1R,2R)-2-[[2-(5-chloro-1H-pyrrolo[2,3-b]pyridin-3-yl)-5-fluoro-pyrimidin-4-yl]amino]cyclohexyl]methanesulfonamide] was tested, and the IC50 was > 20 µM. With CCCS(=O)(=O)N[C@@H]1CCCC[C@H]1Nc1nc(-c2c[nH]c3ncc(Cl)cc23)ncc1F [Compound 354, N-[(1R,2R)-2-[[2-(5-chloro-1H-pyrrolo[2,3-b]pyridin-3-yl)-5-fluoro-pyrimidin-4-yl]amino]cyclohexyl]propane-1-sulfonamide] the IC50 was > 20 µM. In the case of CCCNC(=O)N[C@@H]1CCCC[C@H]1Nc1nc(-c2c[nH]c3ncc(Cl)cc23)ncc1F [Compound 355, 1-[(1R,2R)-2-[[2-(5-chloro-1H-pyrrolo[2,3-b]pyridin-3-yl)-5-fluoro-pyrimidin-4-yl]amino]cyclohexyl]-3-propyl-urea], the IC50 is reported as > 20 µM. CCC(=O)N[C@@H]1CCCC[C@H]1Nc1nc(-c2c[nH]c3ncccc23)ncc1F [Compound 356, N-[(1R,2R)-2-[[5-fluoro-2-(1H-pyrrolo[2,3-b]pyridin-3-yl)pyrimidin-4-yl]amino]cyclohexyl]propanamide] was tested, and the IC50 was > 20 µM. In the case of CCCC(=O)N[C@@H]1CCCC[C@H]1Nc1nc(-c2c[nH]c3ncccc23)ncc1F [Compound 358, N-[(1R,2R)-2-[[5-fluoro-2-(1H-pyrrolo[2,3-b]pyridin-3-yl)pyrimidin-4-yl]amino]cyclohexyl]butanamide], the IC50 is reported as > 20 µM. For O=C(N[C@@H]1CCCC[C@H]1Nc1nc(-c2c[nH]c3ncccc23)ncc1F)C1CCCC1 [Compound 359, N-[(1R,2R)-2-[[5-fluoro-2-(1H-pyrrolo[2,3-b]pyridin-3-yl)pyrimidin-4-yl]amino]cyclohexyl]cyclopentanecarboxamide], the IC50 was > 20 µM. O=C(N[C@@H]1CCCC[C@H]1Nc1nc(-c2c[nH]c3ncccc23)ncc1F)c1ccccc1 [Compound 360, N-[(1R,2R)-2-[[5-fluoro-2-(1H-pyrrolo[2,3-b]pyridin-3-yl)pyrimidin-4-yl]amino]cyclohexyl]benzamide] was tested, and the IC50 was > 20 µM. With CS(=O)(=O)N[C@@H]1CCCC[C@H]1Nc1nc(-c2c[nH]c3ncccc23)ncc1F [Compound 361, N-[(1R,2R)-2-[[5-fluoro-2-(1H-pyrrolo[2,3-b]pyridin-3-yl)pyrimidin-4-yl]amino]cyclohexyl]methanesulfonamide] the IC50 was > 20 µM. CCCS(=O)(=O)N[C@@H]1CCCC[C@H]1Nc1nc(-c2c[nH]c3ncccc23)ncc1F [Compound 362, N-[(1R,2R)-2-[[5-fluoro-2-(1H-pyrrolo[2,3-b]pyridin-3-yl)pyrimidin-4-yl]amino]cyclohexyl]propane-1-sulfonamide] was tested, and the IC50 was > 20 µM. With O=C(NC1CCCCC1Nc1nc(-c2c[nH]c3ncc(Cl)cc23)ncc1F)C1CCCC1 (stereo not drawn) [Compound 364, N-[(trans-2-[[2-(5-chloro-1H-pyrrolo[2,3-b]pyridin-3-yl)-5-fluoro-pyrimidin-4-yl]amino]cyclohexyl]cyclopentanecarboxamide] the IC50 was > 20 µM. For CCCC(=O)N[C@@H]1CCCC[C@H]1Nc1nc(-c2c[nH]c3ncc(Cl)cc23)ncc1F [Compound 369, N-[(1R,2R)-2-[[2-(5-chloro-1H-pyrrolo[2,3-b]pyridin-3-yl)-5-fluoro-pyrimidin-4-yl]amino]cyclohexyl]butanamide], the IC50 was > 20 µM. With CCCNC(=O)N[C@@H]1CCCC[C@H]1Nc1nc(-c2c[nH]c3ncccc23)ncc1F [Compound 370, 1-[(1R,2R)-2-[[5-fluoro-2-(1H-pyrrolo[2,3-b]pyridin-3-yl)pyrimidin-4-yl]amino]cyclohexyl]-3-propyl-urea] the IC50 was > 20 µM. CC(C)NC(=O)N1CCCC[C@@H]1CNc1nc(-c2c[nH]c3ncccc23)ncc1F [Compound 371] was tested, and the IC50 was > 20 µM. With CNC(=O)N1CCCC[C@@H]1CNc1nc(-c2c[nH]c3ncccc23)ncc1F [Compound 374, (R)-2-((5-fluoro-2-(1H-pyrrolo[2,3-b]pyridin-3-yl)pyrimidin-4-ylamino)methyl)-N-methylpiperidine-1-carboxamide] the IC50 was > 20 µM. O=C1NCCC1Nc1nc(-c2c[nH]c3ncc(Cl)cc23)ncc1F (stereo not drawn) [Compound 380] was tested, and the IC50 was 5 to 20 µM. For CS(=O)(=O)N1CCCC[C@H]1CNc1nc(-c2c[nH]c3ncc(Cl)cc23)ncc1F [Compound 384, (S)-2-(5-chloro-1H-pyrrolo[2,3-b]pyridin-3-yl)-5-fluoro-N-((1-(methylsulfonyl)-piperidin-2-yl)methyl)pyrimidin-4-amine], the IC50 was < 5 µM. In the case of O=S(=O)(C1CC1)N1CCCC[C@H]1CNc1nc(-c2c[nH]c3ncc(Cl)cc23)ncc1F [Compound 386, (S)-2-(5-chloro-1H-pyrrolo[2,3-b]pyridin-3-yl)-5-fluoro-N-((1-(cyclopropylsulfonyl)-piperidin-2-yl)methyl)pyrimidin-4-amine], the IC50 is reported as < 5 µM. With Fc1cnc(-c2c[nH]c3ncc(Cl)cc23)nc1NCC1CN(Cc2ccccc2)CCO1 (stereo not drawn) [Compound 388, N-((4-benzylmorpholin-2-yl)methyl)-2-(5-chloro-1H-pyrrolo[2,3-b]pyridin-3-yl)-5-fluoropyrimidin-4-amine] the IC50 was > 20 µM. For CCS(=O)(=O)N1CC[C@H](Nc2nc(-c3c[nH]c4ncc(Cl)cc34)ncc2F)C1 [Compound 399, (S)-2-(5-chloro-1H-pyrrolo[2,3-b]pyridin-3-yl)-N-(1-(ethylsulfonyl)pyrrolidin-3-yl)-5-fluoropyrimidin-4-amine], the IC50 was < 5 µM. For CC(C)S(=O)(=O)N1CC[C@H](Nc2nc(-c3c[nH]c4ncc(Cl)cc34)ncc2F)C1 [Compound 400, (5)-2-(5-chloro-1H-pyrrolo[2,3-b]pyridin-3-yl)-5-fluoro-N-(1-(isopropylsulfonyl)pyrrolidin-3-yl)pyrimidin-4-amine], the IC50 was 5 to 20 µM. For O=S(=O)(C1CC1)N1CC[C@H](Nc2nc(-c3c[nH]c4ncc(Cl)cc34)ncc2F)C1 [Compound 401, (S)-2-(5-chloro-1H-pyrrolo[2,3-b]pyridin-3-yl)-N-(1-(cyclopropylsulfonyl)pyrrolidin-3-yl)-5-fluoropyrimidin-4-amine], the IC50 was 5 to 20 µM. Work on CCCCS(=O)(=O)N1CC[C@H](Nc2nc(-c3c[nH]c4ncc(Cl)cc34)ncc2F)C1 [Compound 402, (S)—N-(1-(butylsulfonyl)pyrrolidin-3-yl)-2-(5-chloro-1H-pyrrolo[2,3-b]pyridin-3-yl)-5-fluoropyrimidin-4-amine] yielded an IC50 of 5 to 20 µM. Compound O=S(=O)(C1CCCC1)N1CC[C@H](Nc2nc(-c3c[nH]c4ncc(Cl)cc34)ncc2F)C1 [Compound 403, (S)-2-(5-chloro-1H-pyrrolo[2,3-b]pyridin-3-yl)-N-(1-(cyclopentylsulfonyl)pyrrolidin-3-yl)-5-fluoropyrimidin-4-amine] has an IC50 of 5 to 20 µM. Work on CCCS(=O)(=O)N1CC[C@H](Nc2nc(-c3c[nH]c4ncc(Cl)cc34)ncc2F)C1 [Compound 410, (S)-2-(5-chloro-1H-pyrrolo[2,3-b]pyridin-3-yl)-5-fluoro-N-(1-(propylsulfonyl)pyrrolidin-3-yl)pyrimidin-4-amine] yielded an IC50 of 5 to 20 µM. With Fc1cnc(-c2c[nH]c3ncc(Cl)cc23)nc1N[C@H]1CCN(CC2CC2)C1 [Compound 415, (S)-2-(5-chloro-1H-pyrrolo[2,3-b]pyridin-3-yl)-N-(1-(cyclopropylmethyl)pyrrolidin-3-yl)-5-fluoropyrimidin-4-amine] the IC50 was > 20 µM.

Same assay, conditions: mean all; A/PR/8/34 infected MDCK cells, CPE assay; read-out: IC50
CN1CCC(Nc2nc(-c3c[nH]c4ncccc34)ncc2F)C1=O (stereo not drawn) [Compound 376] was tested, and the IC50 was 5 to 20 µM. In the case of O=C1NCCC1Nc1nc(-c2c[nH]c3ncccc23)ncc1F (stereo not drawn) [Compound 377], the IC50 is reported as > 20 µM. O=C1CCC(CNc2nc(-c3c[nH]c4ncc(Cl)cc34)ncc2F)CN1 (stereo not drawn) [Compound 378] was tested, and the IC50 was > 20 µM. Work on O=S(=O)(CC(F)(F)F)N1CCCC[C@@H]1CNc1nc(-c2c[nH]c3ncc(Cl)cc23)ncc1F [Compound 387] yielded an IC50 of 5 to 20 µM. In the case of CCCCS(=O)(=O)N1CCC(Nc2nc(-c3c[nH]c4ncc(Cl)cc34)ncc2F)C1 (stereo not drawn) [Compound 406], the IC50 is reported as > 20 µM. For CCS(=O)(=O)N1CCC(Nc2nc(-c3c[nH]c4ncc(Cl)cc34)ncc2F)C1 (stereo not drawn) [Compound 407], the IC50 was > 20 µM. In the case of CC(C)S(=O)(=O)N1CCC(Nc2nc(-c3c[nH]c4ncc(Cl)cc34)ncc2F)C1 (stereo not drawn) [Compound 408], the IC50 is reported as > 20 µM. For O=C(OC1CCOC1)N1CCC(Nc2nc(-c3c[nH]c4ncc(Cl)cc34)ncc2F)CC1 (stereo not drawn) [Compound 420], the IC50 was > 20 µM.
